Reference: US20120035855A1, “METHOD OF NETWORK-BASED IDENTIFICATION FOR DRUG ACTION AND/OR SYNERGY EFFECT OF MEDICINE COMBINATION” (TSINGHUA UNIVERSITY, priority 2008, published 2012)

System: Human Umbilical Vein Endothelial Cells (HUVECs)
Assay: Cell scratch experiment, inhibition of endothelial cell migration
Assay type: cell-based
Design: Ranking by experiment results: dose or concentration left out as unconfirmed
Details: single medicine; 9 h intervention; FIG. 4
Excerpt: Experiment: cell scratch experiments were used to quantitively measure the inhibition of medicines on migration. […] Sterile operation had to be ensured during cell scrapping process. Human Umbilical Vein Endothelial Cells (HUVECs) available from Cascade Biologics (Portland, USA) were repeatably cultured with the supplier's criterions; Matrine, quercetin, emodin, evodiamine, genistein, and aconitine were purchased from National Institute for the Control of Pharmaceutical and Biological Products, and their experimental density were set at 10 mM as indicated by literature. HUVECs were cultured on 12-plate coated by 0.1% gelatin, the cells were inactivated after 2 hours under the conditions of 5% CO2, 37° C. and 10 ug/ml of Mitonycin C. Cell scraper about 1 mm in width was used to scrap on the fused surface of single-layer of cells. Standard endothelial cell growth medium (ECGM) free of medicine application was taken as control group. Pictures were taken at 6 h−10 h of medicine intervention by Nikon digital camera, with migration distance being scaled by configure software. The experiment was repeated five times. The […] ability of the medicines was measured by Migration Inhibition Rate, determined as:
Migration Inhibition Rate=(migration distance of control group−migration distance of experimental group)/migration distance of control group

Row | Compound | inhibition on endothelial cell migration (in words)
1 | O=C1CCC[C@@H]2[C@H]3CCCN4CCC[C@@H](CN12)[C@@H]34 [Matrine] | strongest inhibition

Same assay, conditions: single medicine; rank of migration inhibition among six medicines; 9 h

Row | Compound | Ranking by experiment results
2 | CCN1C[C@]2(COC)[C@H](O)C[C@H](OC)[C@@]34[C@@H]5C[C@@]6(O)[C@H](OC(=O)c7ccccc7)[C@@H]5[C@@](OC(C)=O)([C@@H]([C@H](OC)[C@H]23)[C@@H]14)[C@@H](O)[C@@H]6OC [Aconitine] | 6
3 | O=c1c(-c2ccc(O)cc2)coc2cc(O)cc(O)c12 [Genistein] | 5
4 | Cc1cc(O)c2c(c1)C(=O)c1cc(O)cc(O)c1C2=O [Emodin] | 3
5 | Evodiamine | 4
6 | O=C1CCC[C@@H]2[C@H]3CCCN4CCC[C@@H](CN12)[C@@H]34 [Matrine] | 1
7 | O=c1c(O)c(-c2ccc(O)c(O)c2)oc2cc(O)cc(O)c12 [Quercetin] | 2
